Reference: US20020102230A1, “Method for inactivating pathogens” (priority 2000, published 2002)
pIC50: −log10 of the molar value. ≈ marks a conversion by molar mass, not a printed value.

Experiments:
[1] = system: IIIB strain of HIV; conditions: virus adsorption interval of 1 h; cited from earlier work
[2] = system: HIV-1 (RF); assay type: cell-based; conditions: 6 days, MTS, control, row printed in μM, read-out: Ic50, activity against HIV-1 in CEM-SS cells
Experimental: (§1) CEM-SS cells (obtained from the AIDS Research and Reference Reagent Repository, Bethesda, Md.) are passaged in T-75 flasks in tissue culture media (RP 1640 medium (no phenol red) with 10% Fetal Bovine Serum (heat inactivated), 2 mM L-glutamine, 100 U/mL penicillin, 100 μg/mL streptomycin, and 10 μg/mL gentamycin). On the day preceding the assay, the cells are split 1:2. On the day of assay the cells are collected by centrifugation, washed twice with tissue culture medium and resuspended in fresh tissue culture medium. Total cell and viability counting is performed using a hemacytometer. Cell viability prior to the assay is determined by Trypan Blue dye exclusion and must exceed 95%. A pretitered aliquot of HIV-1 RF (AIDS Research and Reference Reagent Repository, Bethesda, Md.), CEM-SS cells and compound are placed into microtiter plates. Each plate contains cell control wells (cells only), virus control wells (cell plus virus), drug toxicity control wells (cells plus drugs only), drug calorimetric control wells (drugs only) as well as experimental wells (drug plus cells plus virus) . Cultures are incubated for 6 days at 37° C., 5% CO2 and antiviral activity and compound toxicity determined by MTS staining.

[3] = system: CEM-SS cells
Experimental: as §1

[4] = Drug cytotoxicity in Vero cells (MTS), HSV-1 assay; assay type: cell-based; conditions: African green monkey
Excerpt: (§2) A virus induced cytopathic effects (CPE) inhibition assay procedure using Promega's cell titer aqueous one solution (MTS, metabolic dye similar to XTT) is employed to evaluate compounds for antiviral activity against herpes simplex virus type 1 (HSV-1) strain HF in Vero cells. Vero cells are pregrown in 96 well tissue culture plates using Dulbecco's modified eagle's media (DMEM) supplemented with 10% heat inactivated fetal bovine serum (FBS), L-glutamine, penicillin and streptomycin. Antiviral assays are designed to test six half log dilution of each compound in triplicate against the challenge virus in microtiter plate wells containing host cell monolayers. To each of the replicate cell cultures is added 50 uL of the test drug solution and 50 uL of virus suspension. Cell control containing medium alone, virus infected controls containing medium and virus, drug cytotoxicity controls containing medium and each drug concentration, reagent controls containing culture medium only (no cells), and drug calorimetric controls containing drug and medium (no cells) are run simultaneously with the test samples. The plates are incubated at 37° C. in a humidified atmosphere containing 5% CO2 until maximum CPE is observed in the untreated virus control cultures (day 5). CPE inhibition is determined by the dye (MTS) uptake procedure. […]

[5] = system: herpes simplex virus type 1 (HSV-1) strain HF; experiment: Virus induced cytopathic effects (CPE) inhibition assay in Vero cells (MTS); assay type: cell-based; conditions: Human alphaherpesvirus 1, Vero, read-out: Ic50 against HSV-1 virus
Excerpt: as §2

[6] = system: HeLa CD4 LTR β-gal cells; experiment: Compound toxicity (XTT, sister plate) in the virus attachment assay; assay type: cell-based
Experimental: (§3) This assay is designed to detect compounds that interact with the cell and block virus attachment, and/or compounds that interact with the forming attachment/fusion complex. The attachment assay is performed with HeLa CD4 LTR β-gal cells. HeLa CD4 LTR β-gal cells are routinely cultured with the required selection antibiotics. Twenty-four hours prior to initiation of the assay the cells are trypsinized, counted, and 1×10^4 cells placed in a 0.2 cm well in media without selection antibiotics. At 24 h media is removed and compound in media placed on the cells and incubated for 15 min at 37° C. […] At the end of the incubation, the wells are washed 3 times with media and the culture continued for 40 to 48 h. At termination of the assay, media is removed and β-galactosidase enzyme expression determined by chemiluminescence per manufacturer instructions (Tropix Gal-screen™, Bedford Mass.) by a single step chemiluminescent method using a single solution to lyse the cells and detect β-galactosidase enzyme activity. Compound toxicity is monitored on a sister plate by XTT dye reduction. All determinations are performed in triplicate with serial ½ Log10 dilution of the test materials.

[7] = system: IIIB strain of HIV; experiment: Virus attachment assay (HeLa CD4 LTR β-gal cells); assay type: cell-based; conditions: Human immunodeficiency virus 1, 1 h adsorption
Experimental: as §3

[8] = system: HeLa CD4 LTR β-gal cells; experiment: Compound toxicity (XTT, sister plate) in the fusion assay; assay type: cell-based
Experimental: The fusion assay assesses the ability of compounds to block cell-to-cell fusion mediated by HIV-1 Env and CD4 expressed on separate cells. This assay is sensitive to inhibitors of both the gp120/CD4 interaction and inhibitors of the X4 coreceptor. First, 5×10^3 HeLa CD4 LTR β-gal cells are placed in microtiter wells and incubated overnight. The following day the media is removed and the HeLa CD4 LTR β-gal cells are incubated for 1 h at 37° C. in fresh media with test compound. Following the incubation 5×10^3 HL2/3 cells are added and the incubation continued for 40 to 48 h. At 40 to 48 h β-galactosidase enzyme expression is detected by chemiluminescence (Tropix Gal-screen™, Tropix, Bedford, Mass.). Compound toxicity is monitored on a sister plate using XTT dye reduction. All determinations are performed in triplicate with serial ½ Log10 dilution of the test materials.

[9] = system: vaginal/cervical epithelial and other cells; conditions: concentrations as low as; cited from earlier work

In the case of `Cc1cn([C@H]2C[C@H](N=[N+]=[N-])[C@@H](CO)O2)c(=O)[nH]c1=O` [AZT], the “Activity in the virus attachment assay (in words)” value [1] is given as “not active”, the IC50 [2] is given as 0.005 µM and the CC50 [3] is given as greater than 1000 nM.

In the case of `Nc1nc2c(ncn2COCCO)c(=O)[nH]1` [Acyclovir], the CC50 at 5 day [4] was greater than 10 µg/mL and the pIC50 [5] was 5.57.

With `COc1cc(-c2ccc(/N=N/c3ccc4c(S(=O)(=O)O)cc(S(=O)(=O)O)c(N)c4c3O)c(OC)c2)ccc1/N=N/c1ccc2c(S(=O)(=O)O)cc(S(=O)(=O)O)c(N)c2c1O` [Chicago Sky Blue] the “Attachment Assay TC50” value [6] was greater than 10 µg/mL, the IC50 [7] was 0.32 µg/mL (≈ 0.354 µM) and the “Fusion Assay TC50” value [8] was greater than 10 µg/mL.

For Nonoxynol-9, the “Concentration that can injure vaginal/cervical epithelial and other cells” value [9] is given as “about 0.0005%”.
